According to patent US20100029668A1, “NOVEL PYRIDAZINE DERIVATIVES” (SYNGENTA CROP PROTECTION, INC., priority 2006, published 2010):

Experiments:
[1] = test system: Alternaria solani; assay: Alternaria solani/Tomato/Preventive (action against Alternaria on tomato); type: in vivo; settings: 96 h, preventive spray, tomato plants cv. Roter Gnom, assessed 4 days after inoculation, read-out: inhibit fungal infestation
Description: (§1) Alternaria solani/Tomato/Preventive (Action Against Alternaria on Tomato) 4 weeks old tomato plants cv. Roter Gnom are treated with the formulated test compound in a spray chamber. Two days after application tomato plants are inoculated by spraying a spore suspension on the test plants. After an incubation period of 4 days at 22° C./18° C. and 95% r. h. in a greenhouse the disease incidence is assessed.

[2] = test system: Botrvtis cinerea; assay: Botrvtis cinerea/Tomato/Preventive (action against Botrytis on tomato); type: in vivo; settings: Solanum lycopersicum, 72 h, preventive spray, tomato plants cv. Roter Gnom, assessed 3 days after inoculation, read-out: inhibit fungal infestation
Description: as §1, with “Botrvtis cinerea/Tomato/Preventive (Action” for “Alternaria solani/Tomato/Preventive (Action”, “Against Botrytis” for “Against Alternaria”, “of 3” for “of 4”, “at 20°” for “at 22° C./18°”

[3] = test system: Pyrenophora teres (Helminthosporium teres); assay: Pyrenophora teres (Helminthosporium teres)/Barley/Preventive (action against net blotch on barley); type: in vivo; settings: 96 h, preventive spray, barley plants cv. Regina, assessed 4 days after inoculation, read-out: inhibit fungal infestation
Description: Pyrenophora teres (Helminthosporium teres)/Barley/Preventive (Action Against Net Blotch on Barley) 1-week-old barley plants cv. Regina are treated with the formulated test compound in a spray chamber. Two days after application barley plants are inoculated by spraying a spore suspension (2.6×10^4 conidia/ml) on the test plants. After an incubation period of 4 days at 20° C. and 95% r. h. the disease incidence is assessed.

[4] = test system: Uncinula necator; assay: Uncinula necator/Grape/Preventive (action against powdery mildew on grape); type: in vivo; settings: Erysiphe necator, 168 h, preventive spray, grape seedlings cv. Gutedel, assessed 7 days after inoculation, read-out: inhibit fungal infestation
Description: Uncinula necator/Grape/Preventive (Action Against Powdery Mildew on Grape) 5 weeks old grape seedlings cv. Gutedel are treated with the formulated test compound in a spray chamber. One day after application grape plants are inoculated by shaking plants infected with grape powdery mildew above the test plants. After an incubation period of 7 days at 24° C./22° C. and 70% r. h. under a light regime of 14/10 h (light/dark) the disease incidence is assessed.

[5] = test system: Puccinia recondita; assay: Puccinia recondita/Wheat/Preventive (action against brown rust on wheat); type: in vivo; settings: 264 h, preventive spray, wheat plants cv. Arina, assessed 11 days after inoculation, read-out: inhibit fungal infestation
Description: Puccinia recondita /Wheat/Preventive (Action Against Brown Rust on Wheat) 1 week old wheat plants cv. Arina are treated with the formulated test compound in a spray chamber. One day after application wheat plants are inoculated by spraying a spore suspension ([…] uredospores/ml) on the test plants. After an incubation period of 1 day at 20° C. and 95% r. h. plants are kept for 10 days 20° C./18° C. (day/night) and 60% r.h. in a greenhouse. The disease incidence is assessed 11 days after inoculation.

[6] = test system: Maqnaporthe grisea (Pyricularia oryzae); assay: whole plant or invertebrate; type: in vivo; settings: 144 h, read-out: inhibit fungal infestation

SMILES	melting point [°C]	inhibition at 200 ppm [1] [%]	inhibition at 200 ppm [2] [%]	inhibition at 200 ppm [3] [%]	inhibition at 200 ppm [4] [%]	inhibition at 200 ppm [5] [%]	inhibition at 200 ppm [6] [%]
CSc1ccc(-c2c(C)n[nH]c(=O)c2-c2ncc(Cl)cc2Cl)nc1 [I.u.006, 4-(3,5-dichloro-pyridin-2-yl)-6-methyl-5-(5-methylsulfanyl-pyridin-2-yl)-2H-pyridazin-3-one]	229						
CSc1ccc(-c2c(C)nnc(Cl)c2-c2ncc(Cl)cc2Cl)nc1 [I.u.008, 3-chloro-4-(3,5-dichloro-pyridin-2-yl)-6-methyl-5-(5-methylsulfanyl-pyridin-2-yl)-pyridazine]	163	≥ 80	≥ 80	≥ 80	≥ 80		
COc1nnc(C)c(-c2ccc(SC)cn2)c1-c1ncc(Cl)cc1Cl [I.u.009, 4-(3,5-dichloro-pyridin-2-yl)-3-methoxy-6-methyl-5-(5-methylsulfanyl-pyridin-2-yl)-pyridazine]	170 to 171		≥ 80			≥ 80	
CSc1ccc(-c2c(C)nnc(C)c2-c2ncc(Cl)cc2Cl)nc1 [I.u.010, 4-(3,5-dichloro-pyridin-2-yl)-3,6-dimethyl-5-(5-methylsulfanyl-pyridin-2-yl)-pyridazine]				≥ 80			≥ 80
